From PMC5880945, “D-Arg^0-Bradykinin-Arg-Arg, a Latent Vasoactive Bradykinin B2 Receptor Agonist Metabolically Activated by Carboxypeptidases” (Frontiers in Pharmacology, 2018)
Entries after “also recorded” stand apart in the source; their conditions may differ. Square brackets hold non-standard residues; d marks the D form. Peptide text beside a SMILES is read from it.

How the values were obtained:
anesthetized rats = assay: In vivo hemodynamics in anesthetized rats pretreated with icatibant or peptidase inhibitors; design: species or system male Sprague-Dawley rats; details: 1.6 μg/kg i.v.; for hypotensive response after Plummer’s inhibitor, in words: Dunnett’s P < 0.05 (r-BK-RR); for heart rate response after enalaprilat + Plummer’s inhibitor, in words / duration of hypotensive episode after enalaprilat + Plummer’s inhibitor, in words / hypotensive response after enalaprilat + Plummer’s inhibitor, in words: enalaprilat 0.1 mg/kg + Plummer’s inhibitor 0.75 mg/kg i.v. 15 min before; for duration of hypotensive episode after enalaprilat + Plummer’s inhibitor, in words / hypotensive response after enalaprilat + Plummer’s inhibitor, in words: Dunnett’s P < 0.01 (r-BK); for hypotensive response after enalaprilat + Plummer’s inhibitor, in words: P < 0.05 (r-BK-RR); for duration of hypotensive episode after enalaprilat, in words: Dunnett’s P < 0.001 (r-BK-RR); for duration of residual hypotensive episode after icatibant, in words / heart rate response after icatibant, in words / hypotensive response after icatibant, in words: icatibant 75 μg/kg i.v. 15 min before; for hypotensive response after icatibant, in words: Dunnett’s P < 0.001 (r-BK), P < 0.01 (r-BK-RR)
Method: All surgical and experimental procedures were reviewed and approved by the Animal Care and Handling Committee of Laval University, in accordance with the Canadian Council on Animal Care. Experiments were performed on male Sprague-Dawley rats (300–375 g) purchased from Charles River Laboratories (St-Constant, QC, Canada). The rats were housed in a light-controlled (12:12-h light-dark cycle (lights on at 0600)) and temperature-regulated room (22 ± 1°C). Animals had free access to normal chow diet and tap water. They were allowed to acclimate to their environmental conditions for 1 week prior to being studied. At the end of the acclimation period, the rats were anesthetised with sodium pentobarbital (50 mg kg^-1, i.p., supplemented as required) and had one catheter implanted into the right jugular vein [for intravenous (i.v.) injection] and one into the left femoral artery [for direct and continuous measurement of blood pressure and heart rate as previously described ([Jean et al., 2016])]. Experiments started at least 20 min following the end of surgery in anesthetised rats.
The mechanism subserving the cardiovascular responses to random i.v. injections of r-BK and r-BK-RR at the dose of 1.6 μg/kg, was evaluated in rats pretreated with specific antagonists. In these experiments, the rats were separated in four groups depending on the antagonist tested, and the cardiovascular responses to the peptides agonists were compared with those elicited in the untreated control group of rats. In the first group of treated rats, the long acting and selective B2R antagonist, icatibant (Hoe 140) (D-Arg-[Hyp^3, Thi^5, D-Tic^7, Oic^8]) bradykinin ([Hock et al., 1991]; [Wirth et al., 1991]; [Rhaleb et al., 1992]; [Marceau et al., 1994]) was intravenously administered as bolus (75 μg/kg, 0.1 ml) following a 10 min period of baseline measurements of heart rate and blood pressure. Fifteen minutes later, recording changes in blood pressure and heart rate elicited by i.v. injection of peptide vehicle (saline-BSA 0.1%) followed by random injections of r-BK and r-BK-RR, were made as described above. The next peptide was administered once all recorded cardiovascular parameters had returned to baseline after the previous injection. Further experiments were made in a second group of rats pretreated with the ACE inhibitor, enalaprilat. In these experiments, enalaprilat was intravenously administered as bolus ([…], 0.1 ml) 15 min before the i.v. injections of peptide vehicle and both customized peptides, as above. Further experiments were also carried out in rats pretreated with the Plummer’s inhibitor (mercaptomethyl-3-guanidinoethylthiopropanoic acid) a high affinity inhibitor of arginine carboxypeptidases that is an arginine analog ([Plummer and Ryan, 1981]). The inhibitor was intravenously administered as bolus (0.75 mg/kg, 0.1 ml) followed 15 min later by the i.v. injections of saline-BSA 0.1%, and then r-BK and -r-BK-RR (1.6 μg/kg) in random order. A fourth group of rats was pretreated with a combined i.v. injection of enalaprilat (0.1 mg/kg) and the Plummer’s inhibitor (0.75 mg/kg) 15 min before the randomized i.v. injections of both customized peptides, as above. The doses of different inhibitors were based on preliminary experiments and from previous studies performed by us and others ([Ishida et al., 1989]; [Wirth et al., 1991]; [Muto et al., 2003]; [Jean et al., 2016]). At the end of the experiments the rats were euthanized with an overdose of sodium pentobarbital (240 mg/kg, i.v.).
Results are presented as means ± SEM. Radioligand binding data were fitted by non-linear regression to a one-site competition equation using a least-square method (Prism 5.0, GraphPad Software Inc., San Diego, CA, United States) and IC50 values calculated from this procedure. […]

[1] = system: human ACE-mCherry fusion protein; assay: Competition of a fluorogenic ACE substrate by synthetic kinins (recombinant ACE-mCherry); type: biochemical; details: 15 min, 37°C
Method: The source of enzyme was whole HEK 293a cells grown in 24-well plates and transfected as described with a vector coding for the human ACE-mCherry fusion protein, an active enzyme ([Charest-Morin and Marceau, 2016]). The culture medium was removed from cell wells, which were rinsed twice with PBS. The fluorogenic substrate (final concentration 20 μM), and, optionally, a competitor (BK, r-BK, or r-BK-RR in variable concentrations, or the ACE inhibitor enalaprilat 1 μM) were added in 250 μl PBS in each well; the plates were then incubated for 15 min at 37°C. At this point, the well supernatants were transferred in Eppendorf tubes, centrifuged 30 s at 12500 rpm to remove debris and 100 μl of this fluid transferred in wells of 96-well plate (black background) to read the fluorescence (excitation 320 nm, emission 420 nm) using a TECAN Infinite® 200 PRO microplate reader. Results were expressed as the percent of the fluorescence in wells containing ACE-mCherry and the substrate without competitors. Controls included mock-transfected cells and enalaprilat-treated cells.

[2] = system: GFP-tagged rabbit B2R (B2R-GFP); assay: B2R-GFP endocytosis and recycling, epifluorescence microscopy, HEK 293 cells; type: cell-based; details: 30 min vs 3 h of stimulation
[3] = Plummer’s inhibitor 0.75 mg/kg i.v. 15 min before
[4] = enalaprilat 0.1 mg/kg i.v. 15 min before
[5] = enalaprilat 0.1 mg/kg i.v. 15 min before, Dunnett’s P < 0.05 (r-BK)

## N=C(N)NCCC[C@@H](N)C(=O)N[C@@H](CCCNC(=N)N)C(=O)N1CCC[C@H]1C(=O)N1CCC[C@H]1C(=O)NCC(=O)N[C@@H](Cc1ccccc1)C(=O)N[C@@H](CO)C(=O)N1CCC[C@H]1C(=O)N[C@@H](Cc1ccccc1)C(=O)N[C@@H](CCCNC(=N)N)C(=O)O [r-BK, D-Arg^0-BK] (H-[dR]RPPGFSPFR-OH)
Anesthetized rats; [3]
  heart rate (tachycardic) response after Plummer’s inhibitor, in words: no effect
  hypotensive response after Plummer’s inhibitor, in words: no effect
Anesthetized rats
  heart rate response after enalaprilat + Plummer’s inhibitor, in words: not different from that seen in untreated rats
  duration of hypotensive episode after enalaprilat + Plummer’s inhibitor, in words: significantly potentiated
  hypotensive response after enalaprilat + Plummer’s inhibitor, in words: significantly potentiated
  duration of residual hypotensive episode after icatibant, in words: comparable to those seen in the untreated group
  heart rate response after icatibant, in words: comparable to those seen in the untreated group
  hypotensive response after icatibant, in words: significantly inhibited
Anesthetized rats; [4]
  duration of hypotensive episode after enalaprilat, in words: not different from that seen in untreated rats
Anesthetized rats; [5]
  hypotensive response after enalaprilat, in words: significantly potentiated
  tachycardic response after enalaprilat, in words: significantly potentiated (P < 0.05, Dunnett’s test) as was the tachycardic response
[1]; competitor 20 μM (equal to substrate concentration), fluorescence
  inhibition of ACE substrate hydrolysis, in words: nearly complete inhibition
[2]
  persistence of B2R-GFP endocytosis, in words: reversible as a function of incubation time, as that of BK; also recorded: not more persistent

## N=C(N)NCCC[C@@H](N)C(=O)N[C@@H](CCCNC(=N)N)C(=O)N1CCC[C@H]1C(=O)N1CCC[C@H]1C(=O)NCC(=O)N[C@@H](Cc1ccccc1)C(=O)N[C@@H](CO)C(=O)N1CCC[C@H]1C(=O)N[C@@H](Cc1ccccc1)C(=O)N[C@@H](CCCNC(=N)N)C(=O)N[C@@H](CCCNC(=N)N)C(=O)N[C@@H](CCCNC(=N)N)C(=O)O [r-BK-RR, D-Arg^0-BK-Arg-Arg] (H-[dR]RPPGFSPFRRR-OH)
Anesthetized rats; [3]
  duration of hypotensive episode after Plummer’s inhibitor, in words: not different from those seen in untreated rats
  heart rate (tachycardic) response after Plummer’s inhibitor, in words: not different from those seen in untreated rats
  hypotensive response after Plummer’s inhibitor, in words: significantly reduce the hypotensive response
Anesthetized rats
  heart rate response after enalaprilat + Plummer’s inhibitor, in words: not different from those seen in untreated rats
  duration of hypotensive episode after enalaprilat + Plummer’s inhibitor, in words: not different from those seen in untreated rats
  hypotensive response after enalaprilat + Plummer’s inhibitor, in words: significantly reduce the hypotensive response
  duration of residual hypotensive episode after icatibant, in words: not different from those of controls
  heart rate response after icatibant, in words: not different from those of controls
  hypotensive response after icatibant, in words: strongly reduce the hypotensive response
Anesthetized rats; [4]
  duration of hypotensive episode after enalaprilat, in words: significantly increase the duration of the hypotensive episode
Anesthetized rats; [5]
  hypotensive response after enalaprilat, in words: no significant effect on the hypotensive response
[1]; Abz-Phe-Arg-Lys(Dnp)-Pro-OH 20 μM, HEK 293a cells with ACE-mCherry, PBS, fluorescence ex 320 / em 420 nm
  competition for recombinant ACE, relative affinity, in words: only slightly less potent than the two other peptides
